Experimental data: the supplement of paper PMC11208160

Test: recombinant barcode read abundance after kanamycin selection (control-corrected) (log10(CPM+1)); higher = more efficient recombination; sequences stand for … in AGTGCAGAGAAAATCGGCCAGTTTTCTCTGCCTGCAGTCCGCATGCCGT…AGATTTATGCAGCGGACTGCCTTTCTCCCAAAGTGATAAACCGGACAGTATCATGGACCGGTTTTCCCGGTAATCCGTATTTGCAAGGTTGGTTTCACT; site = the 11-nt target
Procedure, shortened: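 Duplicate cultures were plated either on chloramphenicol/ampicillin LB agar, serving as control, or on chloramphenicol/ampicillin/kanamycin with 0.1 mM IPTG. These came from a pooled E. coli library co-electroporated with a donor plasmid, each member pairing a target with an IS621 bridge RNA target-binding loop. Recombination efficiency equals averaged, control-corrected counts per million of recombinant-junction barcodes. It is listed as log10(CPM+1).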
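Further: IS621 recombinase and bridge RNA in Escherichia coli cells.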

Sequence | recombinant barcode read abundance (log10)
GAAGAGGCTTGGGTTCTAACCTGTTGCCA (site GAAGAGGCTTG) | 0.536
GAAGAGGCTTGGGTTCTAACCTGTTGCCA (site TGTCTCCCTAC) | 0.115
GAAGCCGCTTGGGTTCTAACCTGTTGCCT (site GAAGACGCTAG) | 0.0292
GAAGCCGCTTGGGTTCTAACCTGTTGCCT (site GAAGCCGCTAG) | 2.26
GAAGCCGCTTGGGTTCTAACCTGTTGCCT (site GAAGGCGCTAG) | 0.16
GAAGCCGCTTGGGTTCTAACCTGTTGCCT (site GAAGTCGCTAG) | 0.302
GAAGGAGCTTGGGTTCTAACCTGTTGCAG (site ATGCCTCCTAA) | 0.0306
GAAGGAGCTTGGGTTCTAACCTGTTGCAG (site GAAGGAGCTCT) | 1.51
GAAGGGACTTGGGTTCTAACCTGTTGCCT (site GAAGGGACTAG) | 2.11
GAAGGGACTTGGGTTCTAACCTGTTGCCT (site GCAGGGACTAG) | 0.236
GAAGGGACTTGGGTTCTAACCTGTTGCCT (site GGAGGGACTAG) | 0.585
GAAGGGACTTGGGTTCTAACCTGTTGCCT (site GTAGGGACTAG) | 1.52
GAAGTCGCTTGGGTTCTAACCTGTTGCCT (site GAAGACGCTAG) | 0.187
GAAGTCGCTTGGGTTCTAACCTGTTGCCT (site GAAGCCGCTAG) | 0.508
GAAGTCGCTTGGGTTCTAACCTGTTGCCT (site GAAGGCGCTAG) | 0
GAAGTCGCTTGGGTTCTAACCTGTTGCCT (site GAAGTCGCTAG) | 1.78
GAATATTCTTGGGTTCTAACCTGTTGCCT (site GAATATTCTAG) | 0.739
GAATATTCTTGGGTTCTAACCTGTTGCCT (site GACTATTCTAG) | 0.0547
GAATATTCTTGGGTTCTAACCTGTTGCCT (site GAGTATTCTAG) | 0.136
GAATATTCTTGGGTTCTAACCTGTTGCCT (site GATTATTCTAG) | 0.27
GAATGTCCTTGGGTTCTAACCTGTTGCAT (site GAATGTCCTAT) | 1.39
GAATGTCCTTGGGTTCTAACCTGTTGCAT (site GCATGTCCTAT) | 0.0491

Sequence | recombinant barcode read abundance (log10)
GACAATGCTTGGGTTCTAACCTGTTGCAT (site ACGTGGACTTA) | 0.229
GACAATGCTTGGGTTCTAACCTGTTGCAT (site GACAATGCTAT) | 0.105
GACACAACTTGGGTTCTAACCTGTTGCCA (site CGGCTCCCTAA) | 0.208
GACACAACTTGGGTTCTAACCTGTTGCCA (site GACACAACTTG) | 0.018
GACACGCCTTGGGTTCTAACCTGTTGCCT (site GACACGCCTAA) | 0.301
GACACGCCTTGGGTTCTAACCTGTTGCCT (site GACACGCCTAC) | 0.0669
GACACGCCTTGGGTTCTAACCTGTTGCCT (site GACACGCCTAG) | 0.156
GACACGCCTTGGGTTCTAACCTGTTGCCT (site GACACGCCTAT) | 0.146
GACACGCCTTGGGTTCTAACCTGTTGCGT (site GACACGCCTAA) | 0.205
GACACGCCTTGGGTTCTAACCTGTTGCGT (site GACACGCCTAC) | 0.571
GACACGCCTTGGGTTCTAACCTGTTGCGT (site GACACGCCTAG) | 0.156
GACACGCCTTGGGTTCTAACCTGTTGCGT (site GACACGCCTAT) | 0.147
GACACGTCTTGGGTTCTAACCTGTTGCCT (site GACACCTCTAA) | 0
GACACGTCTTGGGTTCTAACCTGTTGCCT (site GACACGTCTAG) | 0.534
GACAGGACTTGGGTTCTAACCTGTTGCCT (site AACACGACTAG) | 0.196
GACAGGACTTGGGTTCTAACCTGTTGCCT (site GACAGGACTAG) | 1.32
GACATCACTTGGGTTCTAACCTGTTGCCT (site GACATCACTAG) | 0.767
GACATCACTTGGGTTCTAACCTGTTGCCT (site GACATCCCTAG) | 0.0352
GACATCACTTGGGTTCTAACCTGTTGCCT (site GACATCGCTAG) | 0.192
GACATCACTTGGGTTCTAACCTGTTGCCT (site GACATCTCTAG) | 0.0671
GACATCCCTTGGGTTCTAACCTGTTGCCT (site GACATCACTAG) | 0.045
GACATCCCTTGGGTTCTAACCTGTTGCCT (site GACATCCCTAG) | 1.45

Sequence | recombinant barcode read abundance (log10)
GACATCCCTTGGGTTCTAACCTGTTGCCT (site GACATCGCTAG) | 0.0465
GACATCCCTTGGGTTCTAACCTGTTGCCT (site GACATCTCTAG) | 0.142
GACATCTCTTGGGTTCTAACCTGTTGCCT (site GACATCACTAG) | 0.105
GACATCTCTTGGGTTCTAACCTGTTGCCT (site GACATCCCTAG) | 0.00568
GACATCTCTTGGGTTCTAACCTGTTGCCT (site GACATCGCTAG) | 0.0954
GACATCTCTTGGGTTCTAACCTGTTGCCT (site GACATCTCTAG) | 1.19
GACCGAGCTTGGGTTCTAACCTGTTGCCT (site GACCGAGCTAG) | 1.33
GACCGAGCTTGGGTTCTAACCTGTTGCCT (site GACCGCGCTAG) | 0.0201
GACCGAGCTTGGGTTCTAACCTGTTGCCT (site GACCGGGCTAG) | 0.145
GACCGAGCTTGGGTTCTAACCTGTTGCCT (site GACCGTGCTAG) | 0.345
GACCGTCCTTGGGTTCTAACCTGTTGCGT (site GACCGTCCTAA) | 0.306
GACCGTCCTTGGGTTCTAACCTGTTGCGT (site GACCGTCCTAC) | 2.65
GACCGTCCTTGGGTTCTAACCTGTTGCGT (site GACCGTCCTAG) | 0.573
GACCGTCCTTGGGTTCTAACCTGTTGCGT (site GACCGTCCTAT) | 1.14
GACCTGGCTTGGGTTCTAACCTGTTGCCG (site GACCTGACTTG) | 0.176
GACCTGGCTTGGGTTCTAACCTGTTGCCG (site GACCTGGCTCG) | 0.886
GACGCAACTTGGGTTCTAACCTGTTGCAT (site GACGCAACTAT) | 0.0836
GACGCAACTTGGGTTCTAACCTGTTGCAT (site GACGCTTCTAT) | 0.0419
GACGCCACTTGGGTTCTAACCTGTTGCCT (site AACGCCACTAG) | 0.162
GACGCCACTTGGGTTCTAACCTGTTGCCT (site GACGCCACTAG) | 0.425
GACGCCTCTTGGGTTCTAACCTGTTGCCT (site AACGCCTCTAG) | 0.227
GACGCCTCTTGGGTTCTAACCTGTTGCCT (site CACGCCTCTAG) | 0.202

Sequence | recombinant barcode read abundance (log10)
GACGCCTCTTGGGTTCTAACCTGTTGCCT (site GACGCCTCTAG) | 0.47
GACGCCTCTTGGGTTCTAACCTGTTGCCT (site TACGCCTCTAG) | 0
GACGCCTCTTGGGTTCTAACCTGTTGCGC (site GACGCCTCTGC) | 2.25
GACGCCTCTTGGGTTCTAACCTGTTGCGC (site TTGAAACCTAG) | 0.26
GACGGACCTTGGGTTCTAACCTGTTGCTA (site ATAACGGCTAG) | 0.0648
GACGGACCTTGGGTTCTAACCTGTTGCTA (site GACGGACCTTA) | 1.26
GACGGATCTTGGGTTCTAACCTGTTGCCT (site GACGGATCTAA) | 0.842
GACGGATCTTGGGTTCTAACCTGTTGCCT (site GACGGATCTAC) | 0.101
GACGGATCTTGGGTTCTAACCTGTTGCCT (site GACGGATCTAG) | 0.212
GACGGATCTTGGGTTCTAACCTGTTGCCT (site GACGGATCTAT) | 0.0859
GACGGCACTTGGGTTCTAACCTGTTGCGG (site GACGGCACTCC) | 2.56
GACGGCACTTGGGTTCTAACCTGTTGCGG (site TCTCATGCTAT) | 0.166
GACGGCTCTTGGGTTCTAACCTGTTGCCT (site GACGGCTCTAG) | 1.3
GACGGCTCTTGGGTTCTAACCTGTTGCCT (site GCCGGCTCTAG) | 0.365
GACGGGGCTTGGGTTCTAACCTGTTGCAG (site GACGGAGCTCA) | 0.753
GACGGGGCTTGGGTTCTAACCTGTTGCAG (site GACGGGGCTCT) | 2.59
GACGTACCTTGGGTTCTAACCTGTTGCCT (site GACATACCTAG) | 0.428
GACGTACCTTGGGTTCTAACCTGTTGCCT (site GACCTACCTAG) | 0.133
GACGTACCTTGGGTTCTAACCTGTTGCCT (site GACGTACCTAG) | 1.31
GACGTACCTTGGGTTCTAACCTGTTGCCT (site GACTTACCTAG) | 0.0104
